Test results from PubChem BioAssay AID1963866 (Molecular Pharmacology Branch, DTP, NCI, 2024).

Test system: PDC KRAS tumor spheroids with HUVEC/MSC, viability
Experiment: Anticancer human tumor 349418-098-R-PDC patient-derived lung adenocarcinoma cell line growth inhibition [KRAS2]
Details: for IC50: curve of first compound; for viability, T/C: stronger effect = lower value
Procedure, shortened: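 KRAS-mutant tumor cells were grown as spheroids with HUVEC endothelial cells and human MSCs as stroma. Targeted agents were tested alone and with KRAS pathway inhibitors. Doses started at or near clinical Cmax, or 10 microM, descending half-log.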

[1] = second compound 0.1 µM, first compound 0.0316 µM
[2] = second compound 0.1 µM, first compound 0.1 µM
[3] = second compound 0.1 µM, first compound 0.316 µM
[4] = second compound 0.1 µM, first compound 1 µM
[5] = second compound 0.1 µM, first compound 3.16 µM
[6] = second compound 0.316 µM, first compound 0.0316 µM
[7] = second compound 0.316 µM, first compound 0.1 µM
[8] = second compound 0.316 µM, first compound 0.316 µM
[9] = second compound 0.316 µM, first compound 1 µM
[10] = second compound 0.316 µM, first compound 3.16 µM
[11] = second compound 1 µM, first compound 0.0316 µM
[12] = second compound 1 µM, first compound 0.1 µM
[13] = second compound 1 µM, first compound 0.316 µM
[14] = second compound 1 µM, first compound 1 µM
[15] = second compound 1 µM, first compound 3.16 µM
[16] = second compound 3.16 µM, first compound 0.0316 µM
[17] = second compound 3.16 µM, first compound 0.1 µM
[18] = second compound 3.16 µM, first compound 0.316 µM
[19] = second compound 3.16 µM, first compound 1 µM
[20] = second compound 3.16 µM, first compound 3.16 µM
[21] = second compound 10 µM, first compound 0.0316 µM
[22] = second compound 10 µM, first compound 0.1 µM
[23] = second compound 10 µM, first compound 0.316 µM
[24] = second compound 10 µM, first compound 1 µM
[25] = second compound 10 µM, first compound 3.16 µM
[26] = second compound 0.1 µM, first compound 10 µM
[27] = second compound 0.316 µM, first compound 10 µM
[28] = second compound 1 µM, first compound 10 µM
[29] = second compound 3.16 µM, first compound 10 µM
[30] = second compound 10 µM, first compound 10 µM
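Further: spheroids exposed to compounds for seven days before readout.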

Structure (SMILES) | IC50 (second compound 0.1 µM) [nM] | IC50 (second compound 0.316 µM) [nM] | IC50 (second compound 1 µM) [nM] | IC50 (second compound 3.16 µM) [nM] | IC50 (second compound 10 µM) [nM] | viability, T/C [1] [%] | viability, T/C [2] [%] | viability, T/C [3] [%] | viability, T/C [4] [%] | viability, T/C [5] [%] | viability, T/C [6] [%] | viability, T/C [7] [%] | viability, T/C [8] [%] | viability, T/C [9] [%] | viability, T/C [10] [%] | viability, T/C [11] [%] | viability, T/C [12] [%] | viability, T/C [13] [%] | viability, T/C [14] [%] | viability, T/C [15] [%] | also measured
CC1COCCN1c1cc(-c2ccnn2C)c2ccnc(-c3ccn[nH]3)c2n1 (stereo not given) + CC1OCC2(CCN(c3cnc(Sc4ccnc(N)c4Cl)c(N)n3)CC2)C1N | 30.4 | 26.9 | 37.8 | 37.4 | 25.4 | 48.2 | 9.73 | 7 | 4.41 | 4.8 | 39.4 | 9.52 | 7.35 | 4.82 | 4.26 | 56.9 | 12.2 | 7.13 | 5.99 | 4.5 | viability, T/C (second compound 0.1 µM, first compound 0.01 µM): 98.1%; viability, T/C (second compound 0.316 µM, first compound 0.01 µM): 115%; viability, T/C (second compound 1 µM, first compound 0.01 µM): 117%; viability, T/C (second compound 3.16 µM, first compound 0.01 µM): 97.7%; viability, T/C [16]: 56.8%; viability, T/C [17]: 10.1%; viability, T/C [18]: 6.94%; viability, T/C [19]: 4.63%; viability, T/C [20]: 4.81%; viability, T/C (second compound 10 µM, first compound 0.01 µM): 89.6%; viability, T/C [21]: 40.6%; viability, T/C [22]: 9.52%; viability, T/C [23]: 5.38%; viability, T/C [24]: 4.95%; viability, T/C [25]: 4.71%
CCNC(=O)CC1N=C(c2ccc(Cl)cc2)c2cc(OC)ccc2-n2c(C)nnc21 (stereo not given) + CC1OCC2(CCN(c3cnc(Sc4ccnc(N)c4Cl)c(N)n3)CC2)C1N | 112 | 133 | 148 | 183 | 196 | 106 | 50.3 | 28.4 | 11.3 | 3.22 | 103 | 58.8 | 23.6 | 10.1 | 2.91 | 136 | 60.9 | 28.8 | 8.35 | 2.56 | viability, T/C [26]: 1.09%; viability, T/C [27]: 1.3%; viability, T/C [28]: 1.67%; viability, T/C [16]: 103%; viability, T/C [17]: 73.9%; viability, T/C [18]: 27.6%; viability, T/C [19]: 10.3%; viability, T/C [20]: 2.56%; viability, T/C [29]: 1.16%; viability, T/C [21]: 109%; viability, T/C [22]: 80%; viability, T/C [23]: 28.3%; viability, T/C [24]: 7.82%; viability, T/C [25]: 2.1%; viability, T/C [30]: 0.96%
Cn1nccc1Nc1nccc(-c2cc3c(s2)C(C)(C)N(CCN2CCOCC2)C3=O)n1 + CC1OCC2(CCN(c3cnc(Sc4ccnc(N)c4Cl)c(N)n3)CC2)C1N | 54.2 | 44.6 | 32.5 | 36.4 | < 31.6 | 68.8 | 27 | 17.7 | 8.51 | 5.52 | 61.4 | 23.7 | 7.24 | 6.49 | 4.43 | 51.1 | 18.4 | 8.88 | 4.35 | 4.16 | viability, T/C [26]: 4.04%; viability, T/C [27]: 4.11%; viability, T/C [28]: 4.13%; viability, T/C [16]: 54.6%; viability, T/C [17]: 19.7%; viability, T/C [18]: 7.87%; viability, T/C [19]: 3.17%; viability, T/C [20]: 2.99%; viability, T/C [29]: 3.09%; viability, T/C [21]: 47.9%; viability, T/C [22]: 18.8%; viability, T/C [23]: 6.03%; viability, T/C [24]: 2.89%; viability, T/C [25]: 2.98%; viability, T/C [30]: 2.7%
